Measurements from patent US11161825B2, “4-oxo-2,3,4,5-tetrahydro-1H-1,5-benzodiazepine-7-carboxamides” (Bayer Aktiengesellschaft, priority 2017, dated 2021).

Experiments:
[1] = target: T1, untagged full length SMYD3 (Homo sapiens, UniProt Q9H7B4); test: Thermal Shift Assay; type: binding; details: protein 1.5-2.0 μM, 5× SYPRO Orange, scans 25° C. to 80° C.; control 4% DMSO
T1 construct: As protein untagged full length SMYD3 was used
T1 sequence (Q9H7B4 1-428): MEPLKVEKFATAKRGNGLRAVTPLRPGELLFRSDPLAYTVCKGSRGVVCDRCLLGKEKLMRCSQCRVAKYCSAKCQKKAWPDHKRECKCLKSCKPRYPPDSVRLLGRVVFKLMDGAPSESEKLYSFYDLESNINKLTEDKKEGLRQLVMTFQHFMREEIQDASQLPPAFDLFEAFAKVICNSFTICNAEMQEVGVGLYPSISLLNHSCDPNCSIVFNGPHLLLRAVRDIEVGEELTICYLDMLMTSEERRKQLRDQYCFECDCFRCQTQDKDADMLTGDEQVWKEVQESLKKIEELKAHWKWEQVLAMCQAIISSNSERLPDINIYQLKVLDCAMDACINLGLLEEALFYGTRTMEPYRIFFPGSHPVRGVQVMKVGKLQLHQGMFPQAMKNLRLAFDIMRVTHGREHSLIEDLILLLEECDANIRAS
Method: Thermal Shift Assay Thermal melting experiments were performed with a ViiA™ Real-Time PCR machine (Thermo Fisher Scientific) in 384-well microliter plate with a final volume of 5 μL. Melting curves were obtained at a protein concentration of 1.5-2.0 μM and 5× SYPRO Orange (Invitrogen) using buffer containing 20 mM Tris pH7.0; 150 mM NaCl; 1.0 mM DTT. As protein untagged full length SMYD3 was used. […] As control 4% DMSO was used. Scans were measured from 25° C. to 80° C. at a scanning rate of 0.1° C./sec. All TSA data were analyzed by using Genedata Assay Analyzer.

SMYD3 = target: T2, SMYD3 (Homo sapiens, UniProt Q9H7B4); test: SMYD3 Scintillation Proximity Assay (SPA), methylation of MAP3K2 Peptide; type: biochemical; details: SMYD3 full length enzyme 10 nM, 3H-SAM 125 nM, MAP3K2 Peptide 1 μM, 120 min at 22° C.
T2 construct: The SMYD3 full length enzyme was produced in-house by expression (with an N-terminal 6×His tag) in E. coli; 6xHis (N); made in house; host or cells: E. coli
T2 sequence (Q9H7B4 1-428): T1 sequence (Q9H7B4 1-428)
Method: SMYD3 Scintillation Proximity Assay (SPA)
The SMYD3 full length enzyme was produced in-house by expression (with an N-terminal 6×His tag) in E. coli and purification by affinity chromatography on a Ni-NTA Sepharose column followed by a size exclusion chromatography step on a Superdex 200 16/60 column (GE Healthcare).
To this end, 100-fold concentrated compound solutions (in DMSO) were previously prepared by serial dilution (1:3.4) of 2 mM stocks in a clear low volume 384-well source microtiter plate (Greiner Bio-One), from which 100 nl of compounds were transferred into a white low volume test microtiter plate from the same supplier. […] The resulting mixture (5 μl final volume) was shortly centrifuged (2 min., 1500 rpm) and incubated at 22° C. during 120 min. […] Plates containing the stopped reaction were sealed with transparent adhesive foil (Perkin Elmer), centrifuged (2 min., 1500 rpm), and further incubated overnight at 4° C. in order to allow the SPA signals to develop. Subsequently, the amount of product was evaluated by measuring the energy transfer from the […] emitted by the 3H-labeled substrate to the scintillator co-polymerized in the bead's matrix, using a TopCount NXT scintillation counter (Packard) with the standard instrument settings for this purpose. The resulting scintillation counts were taken as indicator for the amount of methylated peptide per well. […] IC50 values were calculated by fitting the normalized inhibition data to a 4-parameter logistic equation using the XLFit analysis software (IDBS).

Row | Compound | Thermal shift assay (° C.) [1] [°C] | IC50 (SMYD3) [µM]
1 | CCCCNC(=O)c1ccc2c(c1)NC(=O)CC(C)N2C(=O)c1ccccc1F (racemic) [Example 53, N-butyl-1-(2-fluorobenzoyl)-2-methyl-4-oxo-2,3,4,5-tetrahydro-1H-1,5-benzodiazepine-7-carboxamide] | 2.53 | 12.3
2 | CCCCNC(=O)c1ccc2c(c1)NC(=O)CC(C)N2C(=O)c1cccc(F)c1 (racemic) [Example 52, N-butyl-1-(3-fluorobenzoyl)-2-methyl-4-oxo-2,3,4,5-tetrahydro-1H-1,5-benzodiazepine-7-carboxamide] | 1.16 | 18.3
3 | Cc1nocc1C(=O)N1c2ccc(C(=O)NCCC3CCC3)cc2NC(=O)C(C)C1C (single isomer, unassigned) [Example 14, N-(2-cyclobutylethyl)-2,3-dimethyl-1-[(3-methyl-1,2-oxazol-4-yl)carbonyl]-4-oxo-2,3,4,5-tetrahydro-1H-1,5-benzodiazepine-7-carboxamide] | 1.15 | > 20
4 | CCCCNC(=O)c1ccc2c(c1)NC(=O)CC(C)N2C(=O)C1CC1 (racemic) [Example 50, N-butyl-1-(cyclopropylcarbonyl)-2-methyl-4-oxo-2,3,4,5-tetrahydro-1H-1,5-benzodiazepine-7-carboxamide] | – | 35
5 | C[C@H]1CC(=O)Nc2cc(C(=O)NCCC3CC3)ccc2N1C(=O)N(C)C1CCN(CC(F)(F)F)CC1 [Example 31, (2S)—N^7-(2-cyclopropylethyl)-N^1,2-dimethyl-4-oxo-N^1-[1-(2,2,2-trifluoroethyl)piperidin-4-yl]-2,3,4,5-tetrahydro-1H-1,5-benzodiazepine-1,7-dicarboxamide] | 2.79 | 2.52
6 | C[C@H]1CC(=O)Nc2cc(C(=O)NCCC3CC3)ccc2N1C(=O)N1CCC(NCC(F)(F)F)CC1 [Example 29, (2S)—N-(2-cyclopropylethyl)-2-methyl-4-oxo-1-({4-[(2,2,2-trifluoroethyl)amino]piperidin-1-yl}carbonyl)-2,3,4,5-tetrahydro-1H-1,5-benzodiazepine-7-carboxamide] | 5.51 | 0.679
7 | C[C@H]1CC(=O)Nc2cc(C(=O)NCCC3CC3)ccc2N1C(=O)N1CCC(F)(F)C1 [Example 24, (2S)—N-(2-cyclopropylethyl)-1-[(3,3-difluoropyrrolidin-1-yl)carbonyl]-2-methyl-4-oxo-2,3,4,5-tetrahydro-1H-1,5-benzodiazepine-7-carboxamide] | 7.35 | 0.706
8 | Cc1nocc1C(=O)N1c2ccc(C(=O)NCCC3CCC3)cc2NC(=O)CC1C (racemic) [Example 6, N-(2-cyclobutylethyl)-2-methyl-1-[(3-methyl-1,2-oxazol-4-yl)carbonyl]-4-oxo-2,3,4,5-tetrahydro-1H-1,5-benzodiazepine-7-carboxamide] | 2.83 | 12.8
9 | CC1C(=O)Nc2cc(C(=O)NCCC3CC3)ccc2N(C(=O)c2ccccc2)C1C (mixture of isomers) [Example 2, 1-benzoyl-N-(2-cyclopropylethyl)-2,3-dimethyl-4-oxo-2,3,4,5-tetrahydro-1H-1,5-benzodiazepine-7-carboxamide] | 5.21 | 1.26
10 | C[C@@H]1CC(=O)Nc2cc(C(=O)N(C)CCC3CC3)ccc2N1C(=O)N1CC2CC2C1 (stereo partly drawn) [Example 56, (2R)-1-(3-azabicyclo[3.1.0]hexane-3-carbonyl)-N-(2-cyclopropylethyl)-N,2-dimethyl-4-oxo-2,3,4,5-tetrahydro-1H-1,5-benzodiazepine-7-carboxamide] | – | > 30
11 | C[C@H]1CC(=O)Nc2cc(C(=O)NCCC3CC3)ccc2N1C(=O)N1CCN(CCO)CC1 [Example 26, (2S)—N-(2-cyclopropylethyl)-1-{[4-(2-hydroxyethyl)piperazin-1-yl]carbonyl}-2-methyl-4-oxo-2,3,4,5-tetrahydro-1H-1,5-benzodiazepine-7-carboxamide] | 6.08 | 1.26
12 | CC1C(=O)Nc2cc(C(=O)NCCC3CCC3)ccc2N(C(=O)N2CCC(N)CC2)C1C (single isomer, unassigned) [Example 21, 1-[(4-aminopiperidin-1-yl)carbonyl]-N-(2-cyclobutylethyl)-2,3-dimethyl-4-oxo-2,3,4,5-tetrahydro-1H-1,5-benzodiazepine-7-carboxamide] | 9.35 | 0.0542
13 | C[C@H]1CC(=O)Nc2cc(C(=O)NCCC3CC3)ccc2N1C(=O)NC1CCNCC1 [Example 43, (2S)—N^7-(2-cyclopropylethyl)-2-methyl-4-oxo-N^1-(piperidin-4-yl)-2,3,4,5-tetrahydro-1H-1,5-benzodiazepine-1,7-dicarboxamide] | 7.49 | 0.481
14 | CCN1CCN(C(=O)N2c3ccc(C(=O)NCCC4CC4)cc3NC(=O)C[C@@H]2C)CC1 [Example 27, (2S)—N-(2-cyclopropylethyl)-1-[(4-ethylpiperazin-1-yl)carbonyl]-2-methyl-4-oxo-2,3,4,5-tetrahydro-1H-1,5-benzodiazepine-7-carboxamide] | 8.77 | 0.52
15 | Cc1nocc1C(=O)N1c2ccc(C(=O)NCCC3CCC3)cc2NC(=O)C(C)C1C (single isomer, unassigned) [Example 16, N-(2-cyclobutylethyl)-2,3-dimethyl-1-[(3-methyl-1,2-oxazol-4-yl)carbonyl]-4-oxo-2,3,4,5-tetrahydro-1H-1,5-benzodiazepine-7-carboxamide] | 3.51 | 3.38
16 | C[C@H]1CC(=O)Nc2cc(C(=O)NCCC3CC3)ccc2N1C(=O)N1CCCNCC1 [Example 33, (2S)—N-(2-cyclopropylethyl)-1-(1,4-diazepan-1-ylcarbonyl)-2-methyl-4-oxo-2,3,4,5-tetrahydro-1H-1,5-benzodiazepine-7-carboxamide] | 10.17 | 0.046
17 | Cc1nocc1C(=O)N1c2ccc(C(=O)NCCC3CC3)cc2NC(=O)C(C)C1C (single isomer, unassigned) [Example 10, N-(2-cyclopropylethyl)-2,3-dimethyl-1-[(3-methyl-1,2-oxazol-4-yl)carbonyl]-4-oxo-2,3,4,5-tetrahydro-1H-1,5-benzodiazepine-7-carboxamide] | 1.29 | > 20
18 | CCCCCNC(=O)c1ccc2c(c1)NC(=O)CC(C)N2C(=O)c1ccc(C)cc1 (racemic) [Example 47, 2-methyl-1-(4-methylbenzoyl)-4-oxo-N-pentyl-2,3,4,5-tetrahydro-1H-1,5-benzodiazepine-7-carboxamide] | 1.68 | 22.1
19 | C[C@@H]1CC(=O)Nc2cc(C(=O)NCCC3CC3)ccc2N1C(=O)N1CC2CC2C1 (stereo partly drawn) [Example 55, (2R)-1-(3-azabicyclo[3.1.0]hexane-3-carbonyl)-N-(2-cyclopropylethyl)-2-methyl-4-oxo-2,3,4,5-tetrahydro-1H-1,5-benzodiazepine-7-carboxamide] | – | 2.64
20 | CCCNC(=O)c1ccc2c(c1)NC(=O)CC(C)N2C(=O)c1cccs1 (racemic) [Example 49, 2-methyl-4-oxo-N-propyl-1-(2-thienylcarbonyl)-2,3,4,5-tetrahydro-1H-1,5-benzodiazepine-7-carboxamide] | 1.43 | –
21 | C[C@H]1CC(=O)Nc2cc(C(=O)N(C)CCC3CC3)ccc2N1C(=O)N1CC2CC2C1 (stereo partly drawn) [Example 54, (2S)-1-(3-azabicyclo[3.1.0]hexane-3-carbonyl)-N-(2-cyclopropylethyl)-N,2-dimethyl-4-oxo-2,3,4,5-tetrahydro-1H-1,5-benzodiazepine-7-carboxamide] | – | 2.53
